Measurements published in US20150051202A1, “TRIAZOLOPYRAZINE DERIVATIVES” (Merck Patent GmbH, priority 2012, published 2015).
Marks after values point to notes of the source that are not given here.

Tests used:
[1] = biological target: GCN2 (Homo sapiens, UniProt Q9P2K8); assay: GCN2 enzyme assay (TR-FRET Lanthascreen, GFP-eIF2alpha substrate); format: biochemical
Description: GCN2: Assay Principle & Conditions
This assay can quantificate the activity of the serin kinase GCN2 (general control non-derepressible-2).
This kinase is involved in the stress metabolism of cells. It is activated upon starvation (amino acid depletion). Its natural substrate is eIF2a (eukaryotic initiation factor 2 alpha subunit), a translation factor, which gets activated (phosphorylated) by GCN2 in case of an amino acid bottleneck in the cells. This in turn leads to a halt of the protein synthesis. Inhibition of GCN2 results in stopping this mechanism: The cell can not stop protein production upon “starvation” stress.
The assay is run in two steps: the enzymatic reaction and the detection step. In the first step GCN2 is incubated with 10 μM ATP and 80 nM of the GFP-labelled substrate eIF2alpha at room temperature.
The enzymatic reaction is stopped by addition of EDTA. The amount of phosphorylated eIF2alpha is determined by TR-FRET (Lanthascreen): A complex is formed consisting of antibody and GFP labelled phospho-eIF2a, which allows a FRET upon exitation at 340 nm.
Final Concentrations in the Enzymatic Reaction • Hepes, pH 7.0 50 mM • MgCl2 10 mM • MnCl2 5 mM • BSA 0.1% • DMSO 1% • ATP 10 uM • DTT 2 mM • GFP-eIF2a 80 nM (substrate) • GCN2 30 nM (enzyme)

[2] = biological target: T1, SYK (Homo sapiens, UniProt P43405); assay: SYK enzyme assay (Flash plate assay / Caliper mobility shift assay); format: biochemical; settings: for SYK (enzyme assay) % at 3 μM: 100% corresponds to zero effect, −50% corresponds to IC50
T1 construct: purchased BPS Bioscience, CA, USA
Procedure: The kinase assay is performed either as 384-well Flashplate assay (for e.g. Topcount measurement) or as 384-well Image-Flashplate assay (for LEADseeker measurement).
2.5 nM SYK, 400 nM Biotin-Aha-Aha-[…]
and 10 μM ATP (spiked with 0.3 μCi 33P-ATP/well) are incubated in a total volume of 50 μl (60 mM Hepes, 10 mM MgCl2, 1.2 mM Dithiothreitol, 0.02% Brij35, 0.1% BSA, pH 7.5) with or without test compound for 1 hours at 30° C. The reaction is stopped with 25 μl 200 mM EDTA. After 30 Min at 30° C. the liquid is removed and each well washed thrice with 100 μl 0.9% sodium chloride solution. Non-specific reaction is determined in presence of 0.1 μM Staurosporine. Radioactivity is measured with Topcount (when using Flashplates) or with LEADseeker (when using Image-Flashplates) respectively. Results (e.g. IC50-values) are calculated with program tools provided by the IT-department (e.g. Symyx Assay Explorer, Genedata Screener).
Enzymatic Assays Using the Caliper LifeSciences Technology
The assays described here are performed on the Caliper Life Sciences LC3000 system This technology provides data on enzyme activity via measurement of the relative amounts of phosphorylated or unphosphorylated fluorescently labelled substrate peptide at the end of an enzymatic reaction.
These different states of peptide are resolved by applying a potential difference across the sample. The presence of the charged phosphate group on the product (as opposed to the substrate) causes a different peptide mobility between the two peptides. This is visualized by excitation of the fluorescent label on the substrate and product peptides and represented as peaks within the analysis software.
In order to measure inhibitor activity of kinase inhibitors on this technology, a TTP Mosquito liquid handling instrument is used to place 0.25 ul of the appropriate concentration of inhibitor in 100% DMSO (for a dose response curve calculation) into each well of a 384-well plate. To this reaction components are added to a final volume of 25 ul. The table below indicates the sequences and concentrations for the assays described in this report. Standard components are 1 mM DTT (Sigma, D0632), 1 mM MgCl2 (Sigma, M1028), 100 mM HEPES pH 7.5 (Calbiochem, 391338), 0.015% Brij-35 (Sigma, B4184).
The reaction is incubated for 90 min at 25 C, and then stopped by the addition of 70 ul of Stop buffer (100 mM HEPES pH 7.5, 0.015% Brij-35, 10 mM EDTA (Sigma, E7889)).
The plate is read on a Caliper LC 3000 in an Off-Chip mobility shift assay format, on a 12-sipper chip. Unphosphorylated substrate and phosphorylated product peptide resolve as separate peaks allowing direct measurement of percentage of conversion of substrate to product. The percent conversion can be plotted against concentration of inhibitor to produce a sigmoidal dose response curve, from which an IC50 can be calculated using GeneData Condoseo or a similar product.

Sequence of GCN2 (Q9P2K8 whole entry): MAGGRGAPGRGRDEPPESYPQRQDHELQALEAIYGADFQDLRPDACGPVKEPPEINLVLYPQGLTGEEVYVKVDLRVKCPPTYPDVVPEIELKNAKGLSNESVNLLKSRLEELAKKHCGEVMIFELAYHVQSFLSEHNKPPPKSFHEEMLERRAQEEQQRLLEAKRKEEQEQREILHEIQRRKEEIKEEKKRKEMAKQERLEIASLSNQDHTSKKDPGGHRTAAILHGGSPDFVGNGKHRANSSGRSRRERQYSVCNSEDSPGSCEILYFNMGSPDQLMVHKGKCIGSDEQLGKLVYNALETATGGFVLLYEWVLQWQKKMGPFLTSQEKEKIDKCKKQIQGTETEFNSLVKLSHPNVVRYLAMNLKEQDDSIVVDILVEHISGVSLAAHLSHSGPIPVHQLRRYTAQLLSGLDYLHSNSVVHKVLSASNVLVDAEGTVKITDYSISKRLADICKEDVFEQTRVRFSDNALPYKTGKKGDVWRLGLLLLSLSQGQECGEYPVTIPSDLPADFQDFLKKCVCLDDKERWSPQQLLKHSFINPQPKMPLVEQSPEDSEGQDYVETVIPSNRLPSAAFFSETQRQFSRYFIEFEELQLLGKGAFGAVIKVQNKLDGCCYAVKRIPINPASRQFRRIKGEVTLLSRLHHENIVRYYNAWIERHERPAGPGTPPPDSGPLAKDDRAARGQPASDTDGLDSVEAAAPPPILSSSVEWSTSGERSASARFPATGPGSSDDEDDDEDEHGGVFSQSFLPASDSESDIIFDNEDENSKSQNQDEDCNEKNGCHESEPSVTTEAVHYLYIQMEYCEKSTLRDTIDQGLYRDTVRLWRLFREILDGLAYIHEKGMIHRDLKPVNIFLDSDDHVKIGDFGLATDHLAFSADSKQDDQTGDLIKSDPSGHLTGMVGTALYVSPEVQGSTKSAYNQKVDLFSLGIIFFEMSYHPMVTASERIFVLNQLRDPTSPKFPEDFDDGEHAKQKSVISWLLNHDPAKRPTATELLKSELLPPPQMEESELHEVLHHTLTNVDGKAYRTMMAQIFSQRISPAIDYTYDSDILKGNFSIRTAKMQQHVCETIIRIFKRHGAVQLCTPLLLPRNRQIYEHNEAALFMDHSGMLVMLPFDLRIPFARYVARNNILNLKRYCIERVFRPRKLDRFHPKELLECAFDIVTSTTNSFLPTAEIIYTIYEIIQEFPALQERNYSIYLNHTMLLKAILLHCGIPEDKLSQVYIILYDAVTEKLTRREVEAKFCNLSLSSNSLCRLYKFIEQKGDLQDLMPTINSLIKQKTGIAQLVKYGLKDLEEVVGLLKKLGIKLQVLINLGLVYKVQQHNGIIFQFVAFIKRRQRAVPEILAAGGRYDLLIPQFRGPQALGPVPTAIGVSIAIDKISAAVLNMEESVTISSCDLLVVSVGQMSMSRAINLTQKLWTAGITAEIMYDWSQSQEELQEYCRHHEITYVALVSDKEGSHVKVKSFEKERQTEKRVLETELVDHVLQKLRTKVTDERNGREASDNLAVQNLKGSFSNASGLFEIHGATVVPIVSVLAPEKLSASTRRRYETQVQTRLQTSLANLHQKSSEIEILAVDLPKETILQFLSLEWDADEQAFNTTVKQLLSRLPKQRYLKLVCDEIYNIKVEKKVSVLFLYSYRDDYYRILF

Compound | IC50 [1] [nM] | IC50 [2] [nM] | SYK (enzyme assay) % at 3 μM [2]
CN(C)Cc1nc2cc(Nc3nc4cncc(-c5ccc6c(cnn6C)c5)n4n3)ccc2[nH]1 [Compound A6, (2-dimethylaminomethyl-1H-benzoimidazol-5-yl)-[5-(1-methyl-1H-indazol-5-yl)-[1,2,4]triazolo[1,5-a]pyrazin-2-yl]-amine] | < 1000 | 1000 to 5000 | 
Cc1cc(Nc2nc3cncc(-c4cnn(C)c4)n3n2)ccc1NC(=O)C1CCNCC1 [Compound A82, piperidine-4-carboxylic acid {2-methyl-4-[5-(1-methyl-1H-pyrazol-4-yl)-[1,2,4]triazolo[1,5-a]pyrazin-2-ylamino]-phenyl}-amide] | < 1000 | 1000 to 5000 | 
Cc1cc(Nc2nc3cncc(-c4cnn(C)c4)n3n2)ccc1N1CCN(C)CC1 [Compound A42, 5-(1-methyl-1H-pyrazol-4-yl)-N-(3-methyl-4-(4-methylpiperazin-1-yl)phenyl)-[1,2,4]triazolo[1,5-a]pyrazin-2-amine] | < 1000 |  | 
COc1cc(Nc2nc3cncc(-c4cnn(C)c4)n3n2)ccc1NC(=O)C1CCNCC1 [Compound A84, piperidine-4-carboxylic acid {2-methoxy-4-[5-(1-methyl-1H-pyrazol-4-yl)-[1,2,4]triazolo[1,5-a]pyrazin-2-ylamino]-phenyl}-amide] | < 1000 | 5000 to 10000 | 
c1cc(N2CCOCC2)ccc1Nc1nc2cncc(-c3cn[nH]c3)n2n1 [Compound A31, (4-morpholin-4-yl-phenyl)-[5-(1H-pyrazol-4-yl)-[1,2,4]triazolo[1,5-a]pyrazin-2-yl]-amine] | 1000 to 5000 | < 1000 | 
COc1cc(Nc2nc3cncc(-c4cnn(C)c4)n3n2)ccc1C(=O)NC1CC1 [Compound A72, N-cyclopropyl-2-methoxy-4-[5-(1-methyl-1H-pyrazol-4-yl)-[1,2,4]triazolo[1,5-a]pyrazin-2-ylamino]-benzamide] | < 1000 | 5000 to 10000 | 
c1cc(N2CCOCC2)ccc1Nc1nc2cncc(-c3cnn(CCN4CCOCC4)c3)n2n1 [Compound A56, {5-[1-(2-morpholin-4-yl-ethyl)-1H-pyrazol-4-yl]-[1,2,4]triazolo[1,5-a]pyrazin-2-yl}-(4-morpholin-4-yl-phenyl)-amine] | 1000 to 5000 | 1000 to 5000 | 
Cc1cc(Nc2nc3cncc(-c4cnn(C)c4)n3n2)ccc1C(=O)NC1CC1 [Compound A71, N-cyclopropyl-2-methyl-4-[5-(1-methyl-1H-pyrazol-4-yl)-[1,2,4]triazolo[1,5-a]pyrazin-2-ylamino]-benzamide] | < 1000 | 1000 to 5000 | 
COc1cccc(Nc2nc3cnc(C)cn3n2)c1 [Compound A24, (3-methoxy-phenyl)-(6-methyl-[1,2,4]triazolo[1,5-a]pyrazin-2-yl)-amine] |  |  | 1@3%
CN1CCN(c2ncc(Nc3nc4cncc(-c5cnn(C)c5)n4n3)cn2)CC1 [Compound A88, [2-(4-methyl-piperazin-1-yl)-pyrimidin-5-yl]-[5-(1-methyl-1H-pyrazol-4-yl)-[1,2,4]triazolo[1,5-a]pyrazin-2-yl]-amine] | < 1000 |  | −13@3%
COc1cccc(Nc2nc3cncc(-c4ccccc4)n3n2)c1 [Compound A28] | < 1000 |  | −2@3%
Cn1ncc2cc(-c3cncc4nc(Nc5ccc(S(C)(=O)=O)cc5)nn34)ccc21 [Compound A1, (4-methanesulfonyl-phenyl)-[5-(1-methyl-1H-indazol-5-yl)-[1,2,4]triazolo[1,5-a]pyrazin-2-yl]-amine] | 5000 to 10000 |  | −18@3 * %
N#Cc1cc(-c2cncc3nc(Nc4ccc(N5CCOCC5)cc4)nn23)ccc1OC1CCOCC1 [Compound A63, 5-[2-(4-morpholin-4-yl-phenylamino)-[1,2,4]triazolo[1,5-a]pyrazin-5-yl]-2-(tetrahydro-pyran-4-yloxy)-benzonitrile] | 1000 to 5000 |  | −30@3%
Cn1ncc2cc(-c3cncc4nc(Nc5cccc(S(N)(=O)=O)c5)nn34)ccc21 [Compound A39, 3-[5-(1-methyl-1H-indazol-5-yl)-[1,2,4]triazolo[1,5-a]pyrazin-2-ylamino]-benzenesulfonamide] | < 1000 |  | 
Fc1ccc(Nc2nc3cnc(Cl)cn3n2)cc1 [Compound A21] | 1000 to 5000 |  | 
Cc1cc(Nc2nc3cncc(-c4cccc(NS(C)(=O)=O)c4)n3n2)ccc1N1CCN(C)CC1 [Compound A43, N-(3-(2-((3-methyl-4-(4-methylpiperazin-1-yl)phenyl)amino)-[1,2,4]triazolo[1,5-a]pyrazin-5-yl)phenyl)methanesulfonamide] | < 1000 |  | 
Cc1cc(Nc2nc3cncc(-c4cccc(C(N)=O)c4)n3n2)ccc1N1CCN(C)CC1 [Compound A54, 3-{2-[3-methyl-4-(4-methyl-piperazin-1-yl)-phenylamino]-[1,2,4]triazolo[1,5-a]pyrazin-5-yl}-benzamide] | 1000 to 5000 |  | 
Cc1cc(Nc2nc3cncc(-c4ccc(C(C)(C)C#N)cc4)n3n2)ccc1N1CCN(C)CC1 [Compound A40, 2-methyl-2-(4-{2-[3-methyl-4-(4-methyl-piperazin-1-yl)-phenylamino]-[1,2,4]triazolo[1,5-a]pyrazin-5-yl}-phenyl)-propionitrile] | < 1000 |  | 
Fc1cccc(Nc2nc3cnc(Cl)cn3n2)c1 [Compound A19] | 1000 to 5000 |  | 
Cn1cc(-c2cncc3nc(Nc4ccc5c(c4)CC(=O)N5)nn23)cn1 [Compound A41, 5-[5-(1-methyl-1H-pyrazol-4-yl)-[1,2,4]triazolo[1,5-a]pyrazin-2-ylamino]-1,3-dihydro-indol-2-one] | < 1000 |  | 
Cn1ncc2cc(-c3cncc4nc(Nc5ccc6c(c5)CC(=O)N6)nn34)ccc21 [Compound A38, 5-[5-(1-methyl-1H-indazol-5-yl)-[1,2,4]triazolo[1,5-a]pyrazin-2-ylamino]-1,3-dihydro-indol-2-one] | < 1000 |  | 
CNS(=O)(=O)c1cccc(-c2cncc3nc(Nc4ccc(N5CCN(C)CC5)c(OC)c4)nn23)c1 [Compound A96, 3-{2-[3-methoxy-4-(4-methyl-piperazin-1-yl)-phenylamino]-[1,2,4]triazolo[1,5-a]pyrazin-5-yl}-N-methyl-benzenesulfonamide] | 1000 to 5000 |  | 
CN1CCN(c2ccc(Nc3nc4cncc(-c5cnn(C)c5)n4n3)cn2)CC1 [Compound A90, [6-(4-methyl-piperazin-1-yl)-pyridin-3-yl]-[5-(1-methyl-1H-pyrazol-4-yl)-[1,2,4]triazolo[1,5-a]pyrazin-2-yl]-amine] | < 1000 |  | 
Cn1cc(-c2cncc3nc(Nc4cccnc4)nn23)cn1 [Compound A12, [5-(1-methyl-1H-pyrazol-4-yl)-[1,2,4]triazolo[1,5-a]pyrazin-2-yl]-pyridin-3-yl-amine] | < 1000 |  | 
Fc1ccc(Nc2cn3nc(Nc4cccnc4)nc3cn2)cc1 [Compound A29, N6-(4-fluoro-phenyl)-N2-pyridin-3-yl-[1,2,4]triazolo[1,5-a]pyrazine-2,6-diamine] | 1000 to 5000 |  | 
COc1cccc(Nc2nc3cnc(C#N)cn3n2)c1 [Compound A23] | 1000 to 5000 |  | 
c1cnc2ccc(-c3cncc4nc(Nc5ccc(N6CCOCC6)cc5)nn34)cc2c1 [Compound A33, (4-morpholin-4-yl-phenyl)-(5-quinolin-6-yl-[1,2,4]triazolo[1,5-a]pyrazin-2-yl)-amine] | 1000 to 5000 |  | 
